Reference: patent publication US12077503B2, “Substituted cyclic amides and their use as herbicides” (FMC CORPORATION, priority 2015, dated 2024)

What was measured:
Format in all cases: in vivo
[1] = tested on: velvetleaf (Abutilon theophrasti); experiment: Test G Post-Emergence Protocol; settings: Abutilon theophrasti, post-emergence, 312 h; for pest or weed control at 15.625 g/ha: 15.625 g ai/ha, evaluated after 13 days (100=total damage to plant; 0=no damage to plant), read-out: Velvetleaf damage rating; for pest or weed control at 62.5 g/ha: 62.5 g ai/ha, read-out: Velvetleaf damage rating (100=total damage to plant; 0=no damage to plant); for pest or weed control at 62.5 g/ha / pest or weed control at 250 g/ha: evaluated after 13 days; for pest or weed control at 250 g/ha: 250 g ai/ha, read-out: damage to plant, Velvetleaf (100=total damage to plant; 0=no damage to plant)
How it was run: (§1)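 Values are percent visual injury at 13 days after treatment (0 none, 100 total). Treatment was a post-emergence spray at 15.625, 62.5 or 250 g/ha on 8-day-old pot plants kept at 24/16 °C.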

[2] = tested on: ivy-leaved morning glory (Ipomoea hederacea); experiment: Test G Post-Emergence Protocol; settings: Ipomoea, post-emergence, 312 h; for pest or weed control at 15.625 g/ha: 15.625 g ai/ha, evaluated after 13 days (100=total damage to plant; 0=no damage to plant), read-out: Morningglory, Ivy-leaved damage rating; for pest or weed control at 62.5 g/ha: 62.5 g ai/ha, read-out: Morningglory, Ivy-leaved damage rating (100=total damage to plant; 0=no damage to plant); for pest or weed control at 62.5 g/ha / pest or weed control at 250 g/ha: evaluated after 13 days; for pest or weed control at 250 g/ha: 250 g ai/ha, read-out: damage to plant, Morningglory, Ivy-leaved (100=total damage to plant; 0=no damage to plant)
How it was run: as §1

[3] = tested on: giant foxtail (Setaria faberi); experiment: Test G Post-Emergence Protocol; settings: Setaria faberi, post-emergence, 312 h; for pest or weed control at 15.625 g/ha: 15.625 g ai/ha, evaluated after 13 days (100=total damage to plant; 0=no damage to plant), read-out: Foxtail, Giant damage rating; for pest or weed control at 62.5 g/ha: 62.5 g ai/ha, read-out: Foxtail, Giant damage rating (100=total damage to plant; 0=no damage to plant); for pest or weed control at 62.5 g/ha / pest or weed control at 250 g/ha: evaluated after 13 days; for pest or weed control at 250 g/ha: 250 g ai/ha, read-out: damage to plant, Foxtail, Giant (100=total damage to plant; 0=no damage to plant)
How it was run: as §1

[4] = tested on: redroot pigweed (Amaranthus retroflexus); experiment: Test G Post-Emergence Protocol; settings: Amaranthus retroflexus, post-emergence, 312 h; for pest or weed control at 15.625 g/ha: 15.625 g ai/ha, evaluated after 13 days (100=total damage to plant; 0=no damage to plant), read-out: Pigweed, Redroot damage rating; for pest or weed control at 62.5 g/ha: 62.5 g ai/ha, read-out: Pigweed, Redroot damage rating (100=total damage to plant; 0=no damage to plant); for pest or weed control at 62.5 g/ha / pest or weed control at 250 g/ha: evaluated after 13 days; for pest or weed control at 250 g/ha: 250 g ai/ha, read-out: damage to plant, Pigweed, Redroot (100=total damage to plant; 0=no damage to plant)
How it was run: as §1

[5] = tested on: corn (Zea mays); experiment: Test G Post-Emergence Protocol; settings: Zea mays, post-emergence, 312 h; for plant injury at 15.625 g/ha: 15.625 g ai/ha, evaluated after 13 days (100=total damage to plant; 0=no damage to plant), read-out: Corn damage rating; for plant injury at 62.5 g/ha: 62.5 g ai/ha, read-out: Corn damage rating (100=total damage to plant; 0=no damage to plant); for plant injury at 62.5 g/ha / plant injury at 250 g/ha: evaluated after 13 days; for plant injury at 250 g/ha: 250 g ai/ha, read-out: damage to plant, Corn (100=total damage to plant; 0=no damage to plant)
How it was run: as §1

[6] = tested on: barnyardgrass (Echinochloa crus-galli); experiment: Test G Post-Emergence Protocol; settings: Echinochloa crus-galli, post-emergence, 312 h; for pest or weed control at 15.625 g/ha: 15.625 g ai/ha, evaluated after 13 days (100=total damage to plant; 0=no damage to plant), read-out: Barnyardgrass damage rating; for pest or weed control at 62.5 g/ha: 62.5 g ai/ha, read-out: Barnyardgrass damage rating (100=total damage to plant; 0=no damage to plant); for pest or weed control at 62.5 g/ha / pest or weed control at 250 g/ha: evaluated after 13 days; for pest or weed control at 250 g/ha: 250 g ai/ha, read-out: damage to plant, Barnyardgrass (100=total damage to plant; 0=no damage to plant)
How it was run: as §1

[7] = tested on: velvetleaf (Abutilon theophrasti); experiment: Test G Pre-Emergence Protocol; settings: Abutilon theophrasti, pre-emergence, 312 h, evaluated after 13 days; for pest or weed control at 15.625 g/ha: 15.625 g ai/ha; for pest or weed control at 15.625 g/ha / pest or weed control at 250 g/ha: read-out: Velvetleaf damage rating (100=total damage to plant; 0=no damage to plant); for pest or weed control at 62.5 g/ha: 62.5 g ai/ha, 100=total damage to plant, 0=no damage to plant, read-out: plant damage rating, Velvetleaf; for pest or weed control at 250 g/ha: 250 g ai/ha
How it was run: (§2)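 Glasshouse pre-emergence test: soil-sown seeds, sprayed after 1 d at 15.625, 62.5 or 250 g/ha. Conditions 24/16° C day/night, 14 h light, 65% humidity, watering twice daily. Rating 13 d post-spray (100 = total damage).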

[8] = tested on: ivy-leaved morning glory (Ipomoea hederacea); experiment: Test G Pre-Emergence Protocol; settings: Ipomoea, pre-emergence, 312 h, evaluated after 13 days; for pest or weed control at 15.625 g/ha: 15.625 g ai/ha, read-out: Morning-glory, Ivy-leaved damage rating (100=total damage to plant; 0=no damage to plant); for pest or weed control at 62.5 g/ha: 62.5 g ai/ha, 100=total damage to plant, 0=no damage to plant, read-out: plant damage rating, Morningglory, Ivy-leaved; for pest or weed control at 250 g/ha: 250 g ai/ha, read-out: Morningglory, Ivy-leaved damage rating (100=total damage to plant; 0=no damage to plant)
How it was run: as §2

[9] = tested on: giant foxtail (Setaria faberi); experiment: Test G Pre-Emergence Protocol; settings: Setaria faberi, pre-emergence, 312 h, evaluated after 13 days; for pest or weed control at 15.625 g/ha: 15.625 g ai/ha; for pest or weed control at 15.625 g/ha / pest or weed control at 250 g/ha: read-out: Foxtail, Giant damage rating (100=total damage to plant; 0=no damage to plant); for pest or weed control at 62.5 g/ha: 62.5 g ai/ha, 100=total damage to plant, 0=no damage to plant, read-out: plant damage rating, Foxtail, Giant; for pest or weed control at 250 g/ha: 250 g ai/ha
How it was run: as §2

[10] = tested on: redroot pigweed (Amaranthus retroflexus); experiment: Test G Pre-Emergence Protocol; settings: Amaranthus retroflexus, pre-emergence, 312 h, evaluated after 13 days; for pest or weed control at 15.625 g/ha: 15.625 g ai/ha; for pest or weed control at 15.625 g/ha / pest or weed control at 250 g/ha: read-out: Pigweed, Redroot damage rating (100=total damage to plant; 0=no damage to plant); for pest or weed control at 62.5 g/ha: 62.5 g ai/ha, 100=total damage to plant, 0=no damage to plant, read-out: plant damage rating, Pigweed, Redroot; for pest or weed control at 250 g/ha: 250 g ai/ha
How it was run: as §2

[11] = tested on: corn (Zea mays); experiment: Test G Pre-Emergence Protocol; settings: Zea mays, pre-emergence, 312 h, evaluated after 13 days; for plant injury at 15.625 g/ha: 15.625 g ai/ha; for plant injury at 15.625 g/ha / plant injury at 250 g/ha: read-out: Corn damage rating (100=total damage to plant; 0=no damage to plant); for plant injury at 62.5 g/ha: 62.5 g ai/ha, 100=total damage to plant, 0=no damage to plant, read-out: plant damage rating, Corn; for plant injury at 250 g/ha: 250 g ai/ha
How it was run: as §2

[12] = tested on: barnyardgrass (Echinochloa crus-galli); experiment: Test G Pre-Emergence Protocol; settings: Echinochloa crus-galli, pre-emergence, 312 h, evaluated after 13 days; for pest or weed control at 15.625 g/ha: 15.625 g ai/ha, read-out: Barnyard grass damage rating (100=total damage to plant; 0=no damage to plant); for pest or weed control at 62.5 g/ha: 62.5 g ai/ha, 100=total damage to plant, 0=no damage to plant, read-out: plant damage rating, Barnyardgrass; for pest or weed control at 250 g/ha: 250 g ai/ha, read-out: Barnyardgrass damage rating (100=total damage to plant; 0=no damage to plant)
How it was run: as §2

Structure (SMILES)	pest or weed control at 15.625 g/ha [1] [%]	pest or weed control at 62.5 g/ha [1] [%]	pest or weed control at 250 g/ha [1] [%]	pest or weed control at 15.625 g/ha [2] [%]	pest or weed control at 62.5 g/ha [2] [%]	pest or weed control at 250 g/ha [2] [%]	pest or weed control at 15.625 g/ha [3] [%]	pest or weed control at 62.5 g/ha [3] [%]	pest or weed control at 250 g/ha [3] [%]	pest or weed control at 15.625 g/ha [4] [%]	pest or weed control at 62.5 g/ha [4] [%]	pest or weed control at 250 g/ha [4] [%]	plant injury at 15.625 g/ha [5] [%]	plant injury at 62.5 g/ha [5] [%]	plant injury at 250 g/ha [5] [%]	pest or weed control at 15.625 g/ha [6] [%]	pest or weed control at 62.5 g/ha [6] [%]	pest or weed control at 250 g/ha [6] [%]	pest or weed control at 15.625 g/ha [7] [%]	pest or weed control at 62.5 g/ha [7] [%]	further results
C=C(C)c1ccccc1NC(=O)[C@H]1C(=O)N(C)C[C@@H]1c1ccc(C(F)(F)F)cc1 (racemic) [Compound 1449]	0	0	0	0	0	10	0	20	60	0	0	30	0	0	10	0	10	30	0	0	pest or weed control at 250 g/ha [7]: 0%; pest or weed control at 15.625 g/ha [8]: 0%; pest or weed control at 62.5 g/ha [8]: 0%; pest or weed control at 250 g/ha [8]: 0%; pest or weed control at 15.625 g/ha [9]: 10%; pest or weed control at 62.5 g/ha [9]: 70%; pest or weed control at 250 g/ha [9]: 80%; pest or weed control at 15.625 g/ha [10]: 0%; pest or weed control at 62.5 g/ha [10]: 0%; pest or weed control at 250 g/ha [10]: 0%; plant injury at 15.625 g/ha [11]: 0%; plant injury at 62.5 g/ha [11]: 0%; plant injury at 250 g/ha [11]: 0%; pest or weed control at 15.625 g/ha [12]: 0%; pest or weed control at 62.5 g/ha [12]: 0%; pest or weed control at 250 g/ha [12]: 30%
CN1C[C@@H](c2ccc(C(F)(F)F)cc2)[C@H](C(=O)Nc2cncnc2)C1=O (racemic) [Compound 1583]	0	0	20	0	10	30	0	20	10	0	0	20	0	0	0	0	0	20	0	0	pest or weed control at 250 g/ha [7]: 0%; pest or weed control at 15.625 g/ha [8]: 0%; pest or weed control at 62.5 g/ha [8]: 0%; pest or weed control at 250 g/ha [8]: 0%; pest or weed control at 15.625 g/ha [9]: 0%; pest or weed control at 62.5 g/ha [9]: 0%; pest or weed control at 250 g/ha [9]: 30%; pest or weed control at 15.625 g/ha [10]: 0%; pest or weed control at 62.5 g/ha [10]: 0%; pest or weed control at 250 g/ha [10]: 30%; plant injury at 15.625 g/ha [11]: 0%; plant injury at 62.5 g/ha [11]: 0%; plant injury at 250 g/ha [11]: 0%; pest or weed control at 15.625 g/ha [12]: 0%; pest or weed control at 62.5 g/ha [12]: 0%; pest or weed control at 250 g/ha [12]: 0%
